Measurements: US20160025704A1, “METHODS FOR IDENTIFYING NEUROPROTECTIVE PKC ACTIVATORS” (priority 2013, published 2016)
Like-named read-outs stand apart in the source and are kept apart here.

Columns and labels:
PKC-ε = target: T1, PKC-ε (Homo sapiens, UniProt Q02156); assay: Activation of purified PKC isozymes; type: biochemical
T1 sequence (Q02156 1-737): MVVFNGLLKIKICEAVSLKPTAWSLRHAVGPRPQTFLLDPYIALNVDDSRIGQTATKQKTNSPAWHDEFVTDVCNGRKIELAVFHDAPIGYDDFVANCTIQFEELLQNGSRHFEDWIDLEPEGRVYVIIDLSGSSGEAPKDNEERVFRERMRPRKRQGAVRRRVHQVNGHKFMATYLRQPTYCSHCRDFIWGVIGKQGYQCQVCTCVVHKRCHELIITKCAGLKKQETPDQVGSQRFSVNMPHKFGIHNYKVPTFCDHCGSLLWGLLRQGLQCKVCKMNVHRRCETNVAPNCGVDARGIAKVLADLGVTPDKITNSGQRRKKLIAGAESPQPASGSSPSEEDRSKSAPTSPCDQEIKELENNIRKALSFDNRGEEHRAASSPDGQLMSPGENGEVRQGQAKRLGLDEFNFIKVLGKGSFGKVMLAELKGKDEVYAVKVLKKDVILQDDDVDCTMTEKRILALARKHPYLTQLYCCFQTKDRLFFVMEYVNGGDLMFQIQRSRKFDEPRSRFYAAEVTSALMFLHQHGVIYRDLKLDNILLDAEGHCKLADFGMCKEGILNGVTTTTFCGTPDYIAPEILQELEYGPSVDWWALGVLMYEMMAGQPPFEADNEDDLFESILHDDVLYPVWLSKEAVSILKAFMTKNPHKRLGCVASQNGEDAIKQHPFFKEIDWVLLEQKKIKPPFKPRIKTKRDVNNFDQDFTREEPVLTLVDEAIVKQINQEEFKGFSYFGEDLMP
Experimental: Protocol: Purified PKC-α, βII, γ, δ, or ε (9 ng) was preincubated for 5 minutes at room temperature with the following PKC activators: (A) DHA-CP6, (B) EPA-CP5, (C) AA-CP4, (D) DCP-LA, (E) “other cyclopropaneated and epoxidized fatty acids, alcohols, and methyl esters.” followed by measurement of PKC activity as described under Experimental Procedures. Results are shown below in FIG. 6.

5XFAD mice = assay: Water maze learning and memory and amyloid deposition in 5XFAD mice; type: in vivo; conditions: 2 times/week from 2 months old
Excerpt: Protocol: 5-month old 5XFAD mice were trained for 5-6 days (3-4 trials/day) to find a hidden platform (9 cm diameter), submerged about 2 cm below the water surface in the a maze pool with 114 cm diameter. After the training trials, a probe trial (a quadrant test or memory retention trial) was given with the platform removed to assess memory retention for its location by the distance the mouse moved in the quadrants. […] Non-treated groups (wild-type and transgenic (5×) mice) received the same vehicle volumes, mechanism of delivery, and frequency of administration as the treated groups

[1] = tested on: BDNF, NGF, NT-3, and GAP-43 mRNA; assay: NTF mRNA expression in primary hippocampal neurons treated with Aβ (real time PCR); type: cell-based, rat; conditions: co-treated 24 hours or treated 12 hours after Aβ
Experimental: Protocol: Primary hippocampal neurons were treated with control buffer (Untreated), Aβ (1 μM, oligomeric form), or 0.5 nM bryostatin for 24 hours. Some cells were co-treated with Aβ plus 0.5 nM bryostatin (Bryo+Aβ) for 24 hours, or pre-treated with Aβ for 12 hours, washed out, and then treated with bryostatin for additional 12 hours (Aβ+Bryo). Cells were then lysed and total RNA was isolated. Relative expression change of BDNF, NGF, NT-3, and GAP-43 mRNA was quantitatively measured from real time PCR using specific primers against rat BDNF, NGF, NT-3, and GAP-43 mRNA (FIG. 14). A representative gel image is also shown below in FIG. 14 (Mean+SEM, *P<0.05, Aβ compared with untreated; #P<0.05, Bryo+Aβ or Aβ+Bryo compared with Aβ only).
Test A—DCPLA (500 nM): Primary hippocampal neurons were treated with control buffer (Untreated), Aβ (1 μM, oligomer), or 500 nM DCPLA for 24 hours. Some cells were pre-treated with Aβ for 12 hr and then treated with 500 nM DCPLA for 12 hours (Aβ+DCP-LA), or co-treated with Aβ plus 500 nM DCP-LA (DCP-LA+Aβ) for 24 hours. Total RNA was isolated and relative expression change of BDNF, NGF, NT-3, and GAP-43 mRNA was quantitatively measured from real time RT-PCR using specific primers against rat BDNF, NGF, NT-3, and GAP-43 mRNA (FIG. 15). A representative gel image is also shown below in FIG. 15 (Mean+SEM of three independent experiments, *P<0.05, Aβ compared with untreated; #P<0.05, Aβ+Bryo or Bryo+Aβ compared with Aβ only).
Test B—DCPLA-methyl ester (100 nM): Primary hippocampal neurons were treated with control buffer (Untreated), 1 μM Aβ, or 100 nM DCP-LA ME (the methyl ester form of DCP-LA) for 24 hours. Some cells were pre-treated with Aβ for 12 hr and then treated with 100 nM DCP-LA ME for 12 hours (Aβ+DCP-LA ME), or co-treated with Aβ plus […] (DCP-LA ME+Aβ) for 24 hours. Total RNA was isolated and relative expression change of BDNF, NGF, NT-3, and GAP-43 mRNA was quantitatively measured from real time RT-PCR using specific primers against rat BDNF, NGF, NT-3, and GAP-43 mRNA (FIG. 16). […]

[2] = tested on: TA 100 cells & TA 1535 cells / TA 98 cells; assay: AMES testing, overall result (mutagenic potential); type: cell-based
Excerpt: The AMES test is a rapid screening of the mutagenic potential of chemical compounds. […] Between 50% and 70% of all known carcinogens test positive in the AMES test.

Row | Compound | PKC-ε specificity versus PKC-α and PKC-δ (PKC-ε; purified PKC isozymes (9 ng), preincubated 5 minutes at room temperature) | amyloid deposition (5XFAD mice; 20 mg/m2 tail vein) | learning and memory deficits (water maze) (5XFAD mice; 20 mg/m2 tail vein) | NTF mRNA expression decreased by Aβ ([1]; 500 nM, Aβ 1 μM oligomer) | AMES testing result [2] | Result (Mutagenic Potential) [2] | activation of α isoform versus ε isoform (PKC-ε; in vitro measurements with purified PKC isozymes) | amyloid deposition (5XFAD mice; 30 μg/kg intraperitoneal) | learning and memory deficits (water maze) (5XFAD mice; 30 μg/kg intraperitoneal) | NTF mRNA expression decreased by Aβ ([1]; 0.5 nM, Aβ 1 μM oligomeric) | AMES testing result ([2]; summary of Tables 1-4)
1 | CCCCCC1CC1CC1CC1CCCCCCCC(=O)O (centres unmarked) [DCPLA, 8-[2-(2-pentylcyclopropyl)methyl]-cyclopropaneoctanoic acid] | PKC-ε specificity ±15% PKC-α and PKC-δ | reduced amyloid deposition | prevented learning (A, C) and memory deficits (B, D) | recovers NTF mRNA expression decreased by Aβ | not mutagenic | Result: Not mutagenic, p > 0.05 |  |  |  |  | 
2 | CCC/C=C/C=C/C(=O)O[C@H]1/C(=C/C(=O)OC)C[C@H]2C[C@H]([C@@H](C)O)OC(=O)C[C@H](O)C[C@@H]3C[C@H](OC(C)=O)C(C)(C)[C@](O)(C[C@@H]4C/C(=C/C(=O)OC)C[C@H](/C=C/C(C)(C)[C@]1(O)O2)O4)O3 [Bryostatin, bryostatin-1] |  |  |  |  |  |  | activates the α isoform and ε isoform equally | reduced amyloid deposition | prevented learning (A, C) and memory deficits (B, D) | recovers NTF mRNA expression decreased by Aβ | not mutagenic
